Several values for one entry are separate records, joined by “and”; a condition that tells them apart may be missing. Equal entries are not always repeated.
Assays:
[1] = tested on: P. aeruginosa PAO1 biofilm; assay: LIVE/DEAD fluorescence assay of biofilm (epifluorescence microscopy); format: cell-based, Pseudomonas aeruginosa; settings: 0.5 mM, 24 h
Method: The effect of the manganese complexes (the concentration of 0.5 mM) on the cell viability of P. aeruginosa in the biofilm layers using the LIVE/DEAD fluorescence assay was also assessed. The mixture of two fluorescent dyes, the dye SYTO-9, and the propidium iodide (included in the FilmTracer™ LIVE/DEAD Biofilm Viability Kit) was used to distinguish live and dead cells. The SYTO-9 can penetrate most membranes freely and is used for assessing total cell counts. In contrast, propidium iodide penetrates cells with compromised membranes, differentiating the damaged bacterial cells from a metabolic active, live cells. As a result, microorganisms with intact cell membranes stain fluorescent green, whereas microorganisms with damaged membranes stain fluorescent red. […] The presence of compounds in the culture caused the aggregation of cells into microcolonies, which was not observed in the control. This observation proves that bacteria were trying to protect themselves against the effect of the complexes tested.
Fluorescence microscopy was used to image live/dead cells in the P. aeruginosa PAO1 biofilm. First, the overnight culture of bacteria was diluted with fresh TSB medium (1:100). […]

[2] = tested on: Escherichia coli ATCC 8739; assay: broth microdilution MIC, E. coli; format: cell-based; settings: planktonic cells
Method: (§1) The antimicrobial activities of the heteroaromatic ligands, Mn(II) complexes, and commercially available drug streptomycin were tested against standard bacterial strains: Staphylococcus aureus ATCC 6538P, Escherichia coli ATCC 8739, Pseudomonas aeruginosa PAO1 (biofilm model strain), and Pseudomonas aeruginosa LES B58 (clinical isolate). The P. aeruginosa PAO1 and LES B58 isolates were derived from the International Pseudomonas aeruginosa Reference Panel (http://bccm.belspo.be/about-us/bccm-lmg, accessed on 30 March 2021).
(§2) All bacteria species were cultivated in trypticase soy broth (TSB) medium (Biocorp, Warsaw, Poland) for 18 h at 37 °C with shaking (160 rpm). Overnight cultures of bacteria were diluted 1:100 into fresh TSB medium and then placed in each of the 96 wells of a microtiter transparent plate (Greiner, Monroe, NC, USA). The manganese(II) complexes—[Mn-pyOH-SO4]n, Mn-imCHO-NO3, Mn-imCHO-Cl, Mn-dipyCO-NO3—and the ligands—pyOH, pyCOOH—were prepared by dissolving compounds in distilled water. […] The starting stock solution was of 2-mM concentration.
(§3) The quantitative assay of the antibacterial activity was performed by the broth microdilution method, in 96-well microtiter plates, in order to establish the minimum inhibitory concentration (MIC). To this purpose, serial two-fold dilutions of the compounds ranging between 1 and 0.0625 mM were made. The details of the experiment were presented in our previous paper.

[3] = tested on: Staphylococcus aureus ATCC 6538P; assay: broth microdilution MIC, S. aureus; format: cell-based; settings: S. aureus, planktonic cells
Method: as §1, §2, §3

Compound	effect on biofilm structure and cell viability (LIVE/DEAD images) [1]	MIC [2]	MIC [3]
Cc1[nH]cnc1C=O.Cc1[nH]cnc1C=O.O=[N+]([O-])[O-].O=[N+]([O-])[O-].[Mn+2] [Mn-imCHO-NO3]	damage to the bacterial cell walls	> 1 mM and > 399 μg/ml	
O=[N+]([O-])[O-].O=[N+]([O-])[O-].OCc1ccccn1.OCc1ccccn1.[Mn+2] [Mn-pyOH-NO3]	damage to the bacterial cell walls	> 1 mM and > 397 μg/ml	> 1 mM and > 397 μg/ml
